In ChEMBL document CHEMBL4627316, “Design and synthesis of potent PAR-1 antagonists based on vorapaxar” (Bioorg Med Chem Lett, 2020):
pIC50: −log10 of the molar value.

Assays:
[1] = target: T1, Proteinase-activated receptor 1 (Homo sapiens) (UniProt P25116); assay: Antagonist activity at human PAR1 expressed in KNRK cells assessed as inhibition of agonist-induced intracellular calcium mobilization at 10^-7 M by fluorimetric assay relative to control; format: functional, cell-based
T1 sequence (whole entry): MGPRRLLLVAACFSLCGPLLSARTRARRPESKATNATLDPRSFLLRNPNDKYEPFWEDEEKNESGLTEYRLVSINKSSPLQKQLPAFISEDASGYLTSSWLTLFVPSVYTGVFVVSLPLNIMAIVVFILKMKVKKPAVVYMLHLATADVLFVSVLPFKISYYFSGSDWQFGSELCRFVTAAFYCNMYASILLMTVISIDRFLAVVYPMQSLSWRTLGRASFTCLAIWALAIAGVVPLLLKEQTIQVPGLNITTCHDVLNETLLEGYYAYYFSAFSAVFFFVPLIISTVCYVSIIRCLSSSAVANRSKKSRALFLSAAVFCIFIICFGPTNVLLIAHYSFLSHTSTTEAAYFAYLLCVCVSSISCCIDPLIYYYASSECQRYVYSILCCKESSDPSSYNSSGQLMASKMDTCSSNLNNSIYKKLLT

[2] = target: T1, Proteinase-activated receptor 1 (Homo sapiens); assay: Antagonist activity at human PAR1 expressed in KNRK cells assessed as inhibition of agonist-induced intracellular calcium mobilization at 10^-6 M by fluorimetric assay relative to control; format: functional, cell-based
[3] = target: T1, Proteinase-activated receptor 1 (Homo sapiens); assay: Antagonist activity at human PAR1 expressed in KNRK cells assessed as inhibition of agonist-induced intracellular calcium mobilization at 10^-5 M by fluorimetric assay relative to control; format: functional, cell-based
[4] = target: T2, Proteinase-activated receptor 1 (Homo sapiens, UniProt P25116); assay: Antagonist activity at human PAR1 expressed in KNRK cells assessed as inhibition of agonist-induced intracellular calcium mobilization by fluorimetric assay; format: functional, cell-based
T2 sequence (P25116 whole entry): T1 sequence (whole entry)

[5] = Half life in Sprague-Dawley rat at 5 mg/kg, po or 1 mg/kg, iv; format: ADME, organism-based; settings: in vivo
[6] = AUC (0 to infinity) in Sprague-Dawley rat at 5 mg/kg, po or 1 mg/kg, iv; format: ADME, organism-based; settings: in vivo
[7] = Cmax in Sprague-Dawley rat at 5 mg/kg, po or 1 mg/kg, iv; format: ADME, organism-based; settings: in vivo
[8] = Oral bioavailability in Sprague-Dawley rat at 5 mg/kg; format: ADME, organism-based; settings: in vivo
[9] = Ratio of drug concentration in brain to plasma in Sprague-Dawley rat at 5 mg/kg, po measured at 8 hrs; format: ADME, organism-based; settings: read-out: BPR

SMILES: C[C@H]1OC(=O)[C@@H]2C[C@@H]3C[C@H](Nc4nc5ccccc5o4)CC[C@H]3[C@H](/C=C/c3ccc(-c4cccc(F)c4)cn3)[C@H]12
- inhibition [1]: 3%
- inhibition [2]: 28%
- inhibition [3]: 81%

SMILES: CCOC(=O)N[C@@H]1CC[C@@H]2[C@@H](C1)C[C@H]1C(=O)O[C@H](C)[C@H]1[C@H]2/C=C/c1ccc(-c2ccccn2)cc1
- inhibition [1]: 5%
- inhibition [2]: 40%
- inhibition [3]: 66%
- pIC50 [4]: 6.26
- half-life [5]: 5 h
- AUC(0-inf) [6]: 7100 ng·h/mL
- Cmax [7]: 710 ng/mL
- bioavailability [8]: 44%
- Kp at 8 h [9]: 0.54

SMILES: C[C@H]1OC(=O)[C@]2(NCC#N)C[C@@H]3CCCC[C@H]3[C@H](/C=C/c3ccc(-c4cccc(F)c4)cn3)[C@H]12
- inhibition [1]: -4%
- inhibition [2]: 92%
- inhibition [3]: 99%
- pIC50 [4]: 6.12
- half-life [5]: 8.5 h
- AUC(0-inf) [6]: 5140 ng·h/mL
- Cmax [7]: 2310 ng/mL
- bioavailability [8]: 34%
- Kp at 8 h [9]: 0.35

SMILES: C[C@H]1OC(=O)[C@]2(NCC(=O)O)C[C@@H]3CCCC[C@H]3[C@H](/C=C/c3ccc(-c4cccc(F)c4)cn3)[C@H]12
- inhibition [1]: 23%
- inhibition [2]: 61%
- inhibition [3]: 100%
- pIC50 [4]: 5.96
- half-life [5]: 2.9 h
- AUC(0-inf) [6]: 5000 ng·h/mL
- Cmax [7]: 1140 ng/mL
- bioavailability [8]: 70%
- Kp at 8 h [9]: 0.68

SMILES: C[C@H]1OC(=O)[C@@H]2C[C@@H]3C[C@H](NCC#N)CC[C@H]3[C@H](/C=C/c3ccc(-c4cccc(F)c4)cn3)[C@H]12
- inhibition [1]: 44%
- inhibition [2]: 71%
- inhibition [3]: 99%
- pIC50 [4]: 6.74
- half-life [5]: 6.4 h
- AUC(0-inf) [6]: 6390 ng·h/mL
- Cmax [7]: 580 ng/mL
- bioavailability [8]: 98%
- Kp at 8 h [9]: 0.38

SMILES: CCOC(=O)N[C@@H]1CC[C@@H]2[C@@H](C1)C[C@H]1C(=O)O[C@H](C)[C@H]1[C@H]2/C=C/c1ccc(-c2cccc(F)c2)cn1 [VORAPAXAR]
- inhibition [1]: 25%
- inhibition [2]: 99%
- inhibition [3]: 101%
- pIC50 [4]: 6.60
- half-life [5]: 4 h
- AUC(0-inf) [6]: 3500 ng·h/mL
- Cmax [7]: 440 ng/mL
- bioavailability [8]: 94%
- Kp at 8 h [9]: 1.08

SMILES: C[C@H]1OC(=O)[C@@H]2C[C@@H]3C[C@H](NCC(=O)O)CC[C@H]3[C@H](/C=C/c3ccc(-c4cccc(F)c4)cn3)[C@H]12
- inhibition [1]: 13%
- inhibition [2]: 34%
- inhibition [3]: 48%

SMILES: CCOC(=O)CN[C@@]12C[C@@H]3CCCC[C@H]3[C@H](/C=C/c3ccc(-c4cccc(F)c4)cn3)[C@@H]1[C@@H](C)OC2=O
- inhibition [1]: -5%
- inhibition [2]: 81%
- inhibition [3]: 101%

SMILES: Cc1ccnc(N[C@@H]2CC[C@@H]3[C@@H](C2)C[C@H]2C(=O)O[C@H](C)[C@H]2[C@H]3/C=C/c2ccc(-c3cccc(F)c3)cn2)n1
- inhibition [1]: 20%
- inhibition [2]: 98%
- inhibition [3]: 101%
- pIC50 [4]: 6.21
- half-life [5]: 6.7 h
- AUC(0-inf) [6]: 860 ng·h/mL
- Cmax [7]: 110 ng/mL
- bioavailability [8]: 23%
- Kp at 8 h [9]: 1.13

SMILES: CCOC(=O)N[C@@H]1CC[C@@H]2[C@@H](C1)C[C@H]1C(=O)O[C@H](C)[C@H]1[C@H]2/C=C/c1ccc(-c2cccc(F)c2)cc1
- inhibition [1]: -7%
- inhibition [2]: 26%
- inhibition [3]: 42%
